Here are results for two molecules from paper PMC12115217, “3,3′-((3-Hydroxyphenyl)azanediyl)dipropionic Acid Derivatives as a Promising Scaffold Against Drug-Resistant Pathogens and Chemotherapy-Resistant Cancer” (Pathogens, 2025).

Structures are written as SMILES. Values after ≈ are worked out from the molar mass of the structure shown. “Also recorded” adds a separate entry of the source.

The test system of data set [1] is E. faecalis AR-0671. In words: Broth microdilution MIC, E. faecalis AR-0671. In kind it is cell-based, Enterococcus faecalis. The conditions noted are these: Enterococcus faecalis, AR0671; CAMHB, 18 ± 2 h; read-out: minimal inhibitory concentration (MIC) E. faecalis AR-0671. A general note: Broth dilution looks for growth in wells or tubes with falling amounts of substance.

Data set [2] relates to FaDu cells. The data set can be described thus: MTT cell viability at fixed 100 µM, FaDu cells. In kind it is cell-based. The conditions noted are these: 24 h, described in words (Figure 2).
Data set [3] concerns P. aeruginosa AR-1114. The data set can be described thus: Broth microdilution MIC, P. aeruginosa AR-1114. In kind it is cell-based. The conditions noted are these: Pseudomonas aeruginosa, AR1114; IMP-15; CAMHB, 18 ± 2 h; read-out: minimal inhibitory concentration (MIC) P. aeruginosa AR-1114.
In data set [4] the test system is A. baumannii AR-0273. In words: Broth microdilution MIC, A. baumannii AR-0273. In kind it is cell-based, Acinetobacter baumannii. The conditions noted are these: Acinetobacter baumannii, AR0273; OXA-23; CAMHB, 18 ± 2 h; read-out: minimal inhibitory concentration (MIC) A. baumannii AR-0273.
For data set [5], the system named is FaDu cells. In words: Superoxide dismutase (SOD) activity in FaDu cell lysate. In kind it is cell-based. The conditions noted are these: 6 h, 0.25% DMSO, versus untreated control (DMSO). The protocol: FaDu cells were seeded onto 6-well tissue culture plates at a density of 5 × 10^5 cells per well and incubated overnight to allow for cell attachment. Following the incubation period, the cells were treated with the selected compounds dissolved in tissue culture medium containing 0.25% DMSO and incubated for an additional 6 h. After the treatment, the medium was aspirated, and the cells were washed twice with phosphate-buffered saline (PBS) to remove residual compounds. The cells were then trypsinized for 10 min to detach them from the culture surface. Following trypsinization, the cells were collected by centrifugation, washed with ice-cold PBS to remove any residual trypsin, and resuspended in 0.5 mL of ice-cold PBS. The cell suspension was then subjected to sonication on ice for disruption. After sonication, the samples were centrifuged at 10,000× g for 10 min at 4 °C to remove cell debris. The resulting supernatant was carefully collected for the subsequent assessment of SOD activity. The activity of superoxide dismutase (SOD) was determined by using a commercial colorimetric assay kit (Superoxide Dismutase (SOD) Colorimetric Activity Kit, Catalog Number EIASODC) (Invitrogen, ThermoFisher Scientific, Waltham, MA, USA) following the manufacturer’s instructions.

For data set [6], the system named is FaDu cells. In words: MTT dose-response IC50, FaDu cells. It counts as cell-based. The conditions noted are these: Homo sapiens, 0–100 µM, 24 h. The protocol: (§1) FaDu cells were obtained from the American Type Culture Collection (Rockville, MD, USA). HEK293 cells were kindly provided by Dr. Iliev lab at the Jill Roberts Institute for Inflammatory Bowel Disease, Weill Cornel Medicine of Cornel University (New York, NY, USA). All cells were cultivated in Dulbecco’s Modified Eagle Medium/Nutrient Mixture F-12 (DMEM/F-12) (Gibco, Waltham, MA, USA), 10% fetal bovine serum (FBS) (Gibco, Waltham, MA, USA), 100 U/mL penicillin, and 100 μg/mL streptomycin (P/S) (Gibco, Waltham, MA, USA). Culturing conditions were maintained at 37 °C in a humidified atmosphere containing 5% CO2. The culture medium was refreshed every 2–3 days, and cells were passaged upon reaching 70–80% confluence.
(§2) The in vitro inhibitory effects of the compounds were assessed by using the MTT assay. Briefly, cells were plated in 96-well plates at a density of 1 × 10⁴ cells per well. After the cells were allowed to adhere overnight at 37 °C in 5% CO₂, they were treated with compounds at a concentration of 100 µM in triplicate. Following a 20 h incubation, the MTT reagent was added, and the cells were further incubated for 4 h. The resulting formazan was solubilized in anhydrous DMSO, and absorbance was measured at 570 nm by using a microplate reader. Cell viability was calculated by using the following formula: ([AE − AB]/[AC − AB]) × 100%, where AE, AC, and AB represent the absorbance values of experimental samples, untreated controls, and blank wells, respectively. Data analysis was performed by using GraphPad Prism or QuickCalcs.
(§3) The data were fitted to a nonlinear regression model (GraphPad Prism version 9.0, GraphPad Software, San Diego, CA, USA) to calculate the IC50 values for each compound tested in triplicate.

Data set [7] deals with S. aureus TCH 1516. In words: Broth microdilution MIC, S. aureus TCH 1516. In kind it is cell-based, Staphylococcus aureus. The conditions noted are these: mecA MRSA isolate, USA300 lineage; CAMHB, 18 ± 2 h. The source says:
The multidrug-resistant S. aureus strain TCH 1516 [USA 300-HOU-MR] was obtained from the American Type Culture Collection (ATCC, Manassas, VA, USA) (Table 1). E. faecalis AR-0671, multidrug-resistant E. coli AR-0001, K. pneumoniae AR-0003, P. aeruginosa AR-1114, and A. baumannii AR-0273 strains were acquired from the Centers for Disease Control and Prevention (CDC) AR isolate bank (Table 1). Prior to the initiation of this study, all microbial strains were stored in commercial cryopreservation systems at a temperature of −80 °C. The strains were cultivated on Columbia sheep blood agar (Becton Dickinson, Franklin Lakes, NJ, USA) or potato dextrose agar (PDA) for Candida (Becton Dickinson, Franklin Lakes, NJ, USA).
The antimicrobial activity of 3-((3-hydroxyphenyl)amino)propanoic acid derivatives was assessed by using the broth microdilution method, following the guidelines outlined by the Clinical Laboratory Standards Institute (CLSI), with modifications. In brief, the compounds were dissolved in dimethyl sulfoxide (DMSO) to attain a final concentration of 25–30 mg/mL. Vancomycin hydrochloride (MedChem express, Cat. No. HY-17362), cefazolin (MedChem express, Cat. No. HY-B1892), and meropenem (MedChem express, Cat. No. HY-13678) were used as control antimicrobial drugs and were dissolved in DMSO as described before. Dilution series were prepared in deep 96-well microplates to achieve a two-fold concentration range of 0.25, 0.5, 1, 2, 4, 8, 16, 32, and 64 µg/mL, utilizing cation-adjusted Mueller–Hinton broth (CAMHB) as the growth medium. The microplates containing the dilution series were then inoculated with fresh cultures of each tested organism to reach a final concentration of 5 × 10^4 CFU (colony-forming units) of the test organism in media containing 1% DMSO and 1× drug concentration, with a volume of 200 µL per well. Wells that were inoculated with medium containing 1% DMSO served as positive controls. Subsequently, the microplates were incubated at 35 ± 1 °C for 18 ± 2 h. Following the incubation period, the plates were examined by using a manual microplate viewer (Sensititre Manual Viewbox, ThermoFisher Scientific, Waltham, MA, USA). […] All experiments were conducted in duplicate with three technical replicates for each condition.

Data set [8] deals with HEK293 cells. The data set can be described thus: MTT dose-response IC50, HEK293 cells. The conditions noted are these: Homo sapiens, non-cancerous HEK293 cells, 24 h. In kind it is cell-based. The protocol:
as §1, §2, §3

Data set [9] relates to S. aureus TCH 1516. The data set can be described thus: Broth microdilution MIC, S. aureus TCH 1516. In kind it is cell-based. The conditions noted are these: Staphylococcus aureus, MRSA / USA300, mecA MRSA isolate, USA300 lineage; CAMHB, 18 ±; read-out: minimal inhibitory concentration (MIC) S. aureus TCH 1516.
For data set [10], the system named is FaDu cells. The data set can be described thus: Hydrogen peroxide production assay in FaDu cells. In kind it is cell-based. The conditions noted are these: 6 h, 0.25% DMSO, versus untreated control. As to the method: FaDu cells were seeded on the 6-well plates and incubated with the compounds as described before. After incubation, cells were cooled down on ice, washed two times with ice-cold PBS, and scraped in PBS. Cells were centrifuged at 10,000× g for 10 min at 4 °C, the supernatant was discarded, and 650 µL of ice-cold PBS was added. Cells were sonicated and centrifuged at 10,000× g for 10 min at 4 °C to remove cell debris. The resulting supernatant was carefully collected for subsequent hydrogen peroxide analysis by using a commercial kit (Pierce™ Quantitative Peroxide Assay Kit (Aqueous), Catalog number 23280) (Invitrogen, ThermoFisher Scientific, Waltham, MA, USA).

Data set [11] concerns K. pneumoniae AR-0003. The data set can be described thus: Broth microdilution MIC, K. pneumoniae AR-0003. The conditions noted are these: Klebsiella pneumoniae, AR0003; KPC-3; CAMHB, 18 ± 2 h; read-out: minimal inhibitory concentration (MIC) K. pneumoniae AR-0003. In kind it is cell-based.
The test system of data set [12] is E. coli AR-0001. In words: Broth microdilution MIC, E. coli AR-0001. In kind it is cell-based. The conditions noted are these: Escherichia coli, AR0001; multidrug-resistant, KPC-3; CAMHB, 18 ± 2 h; read-out: minimal inhibitory concentration (MIC) E. coli AR-0001.

In general, IC50 refers to the concentration needed to halve the response being measured. A higher IC50 goes with weaker potency. In the case of `O=C1CCN(c2cccc(O)c2)C(=S)N1` [Compound 6, 1-(3-Hydroxyphenyl)-2-thioxotetrahydropyrimidin-4(1H)-one], the MIC in data set [1] was 32 µg/mL (≈ 144 µM); in [3], more than 64 µg/mL; in data set [4], more than 64 µg/mL; in data set [9] it was 8 µg/mL (≈ 36 µM); in data set [11], more than 64 µg/mL; in data set [12] it was more than 64 µg/mL. For the same molecule, the “post-treatment viability (MTT assay)” value in [2] is “most promising reduction in cell viability”. Besides, the “SOD activity (U/mL of cell lysate)” value in data set [5] is recorded as “significantly higher”. Moreover, the IC50 came to 13.4 µM in data set [6] and 22.6 µM in [8]. In data set [7], the “minimal inhibitory concentration (MIC) S. aureus TCH 1516” value was 16 µg/mL (≈ 72 µM). The “hydrogen peroxide levels (optical density at 525 nm)” value in data set [10] was “significantly higher”.

Regarding `O=C(CCN(CCC(=O)N/N=C1\C(=O)Nc2ccccc21)c1cccc(O)c1)N/N=C1\C(=O)Nc2ccccc21` [Compound 25], the MIC in data set [1] is 16 µg/mL (≈ 29.7 µM); in data set [3], more than 64 µg/mL; in [4], more than 64 µg/mL; in data set [9] it was 32 µg/mL (≈ 59.3 µM); in data set [11] it was more than 64 µg/mL; in [12] it was 64 µg/mL (≈ 119 µM). Besides, the “post-treatment viability (MTT assay)” value in [2] is on record as “most promising reduction in cell viability”. The “SOD activity (U/mL of cell lysate)” value in data set [5] is given as “significantly higher; also recorded: highest SOD activity”. In addition, the concentration for half-maximal inhibition (IC50) was found to be 5.28 µM in data set [6] and 11.7 µM in [8]. Further, the “hydrogen peroxide levels (optical density at 525 nm)” value in [10] is reported as “significantly higher”.
